Results published in US20050171358A1 (priority 2002, published 2005).

Legend:
[1] = system: Colletotrichum lagenarium; conditions: 200 ppm spray on cucumber (3 leaf stage), inoculated next day; lesion numbers on first and second leaves after 7 days in green house, graded by Table 5
Pyricularia oryzae = type: in vivo; conditions: 200 ppm spray on rice (Koshihikari, 3 leaf stage), inoculated next day; lesion numbers on third leaves after 7 days in green house, graded by Table 5

Structure (SMILES) | Evaluation (effect for cucumber anthracnose) [1] | Evaluation (effect for rice blast) (Pyricularia oryzae)
COc1ccc(C(=O)NCc2cc(COc3ccccc3)no2)cc1 [IV-45, N-[(3-phenyloxymethyl-5-isoxazolyl)methyl]-4-methoxy benzamide] | 5 (0) | 5 (0)
Cc1ccc(C(=O)NCc2cc(COc3ccccc3)no2)cc1 [IV-46, N-[(3-phenoxymethyl-5-isoxazolyl)methyl]-4-methylbenzamide] | 5 (0) | 5 (0)
COc1ccc(C(=O)NCc2cc(COc3ccccc3C)no2)cc1 [IV-47, N-{[3-(2-methylphenyl)oxymethyl-5-isoxazolyl]methyl}-4-methoxy benzamide] | 5 (0) | 5 (0)
COc1ccc(C(=O)NCc2cc(COc3cccc(C)c3)no2)cc1 [IV-48, N-{[3-(3-methylphenyl)oxymethyl-5-isoxazolyl]methyl}-4-methoxybenzamide] | 2 (11˜20) | 3 (6˜10)
Cc1ccc(C(=O)NCc2cc(COc3cccc(C)c3)no2)cc1 [IV-49, N-{[3-(3-methylphenyl)oxymethyl-5-isoxazolyl]methyl}-4-methylbenzamide] | 2 (11˜20) | 2 (11˜20)
COc1ccc(C(=O)NCc2cc(COc3ccc(C)cc3)no2)cc1 [IV-50, N-{[3-(4-methylphenyl)oxymethyl-5-isoxazolyl]methyl}-4-methoxybenzamide] | 4 (1˜5) | 5 (0)
COc1ccc(C(=O)NCc2cc(COc3cccc(C#N)c3)no2)cc1 [IV-52, N-{[3-(3-cyanophenyl)oxymethyl-5-isoxazolyl]methyl}-4-methoxybenzamide] | 2 (11˜20) | 3 (6˜10)
COc1ccc(C(=O)NCc2cc(COc3ccc(C#N)cc3)no2)cc1 [IV-53, N-([3-(4-cyanophenyl)oxymethyl-5-isoxazolyl]methyl}-4-methoxybenzamide] | 5 (0) | 5 (0)
COc1ccc(C(=O)NCc2cc(COc3ccccc3OC)no2)cc1 [IV-54, N-{[3-(2-methoxyphenyl)oxymethyl-5-isoxazolyl]methyl}-4-methoxybenzamide] | 4 (1˜5) | 3 (6˜10)
COc1ccc(C(=O)NCc2cc(COc3cccc(OC)c3)no2)cc1 [IV-55, N-{[3-(3-methoxyphenyl)oxymethyl-5-isoxazolyl]methyl}-4-methoxybenzamide] | 4 (1˜5) | 4 (1˜5)
COc1ccc(OCc2cc(CNC(=O)c3ccc(OC)cc3)on2)cc1 [IV-56, N-{[3-(4-methoxyphenyl)oxymethyl-5-isoxazolyl]methyl}-4-methoxybenzamide] | 2 (11˜20) | 3 (6˜10)
COc1ccc(C(=O)NCc2cc(COc3ccccc3F)no2)cc1 [IV-57] | 5 (0) | 5 (0)
COc1ccc(C(=O)NCc2cc(COc3cccc(F)c3)no2)cc1 [IV-58, N-{[3-(3-fluorophenyl)oxymethyl-5-isoxazolyl]methyl}-4-methoxybenzamide] | 5 (0) | 5 (0)
COc1ccc(C(=O)NCc2cc(COc3ccc(F)cc3)no2)cc1 [IV-59, N-{[3-(4-fluorophenyl)oxymethyl-5-isoxazolyl]methyl}-4-methoxybenzamide] | 5 (0) | 5 (0)
COc1ccc(C(=O)NCc2cc(COc3ccc([N+](=O)[O-])cc3)no2)cc1 [IV-60, N-{[3-(4-nitrophenyl)oxymethyl-5-isoxazolyl]methyl}-4-methoxybenzamide] | 5 (0) | 5 (0)
COc1ccc(C(=O)NCc2cc(COc3ccc(-n4cncn4)cc3)no2)cc1 [IV-73] | 3 (6˜10) | 2 (11˜20)
COc1ccc(C(=O)NCc2cc(CON=Cc3ccccc3)no2)cc1 [IV-74, {3-[(4-methoxyphenyl)carbonylaminomethyl]-5-isoxazolyl]methoxyiminobenzyl] | 3 (6˜10) | 4 (1˜5)
CO/N=C/c1ccc(OCc2cc(CNC(=O)c3ccc(OC)cc3)on2)cc1 [IV-75] | 3 (6˜10) | 2 (11˜20)
COc1ccc(C(=O)NCc2cc(COc3c(C)cccc3C)no2)cc1 [IV-80, N-{[3-(2,6-dimethylphenyl)oxymethyl-5-isoxazolyl]methyl}-4-methoxybenzamide] | 4 (1˜5) | 4 (1˜5)

Structure (SMILES) | Evaluation (effect for cucumber anthracnose) [1] | Evaluation (effect for rice blast) (Pyricularia oryzae)
COc1ccc(C(=O)NCc2cc(C(=O)Nc3ccccc3)no2)cc1 [IV-84, N-[(3-phenylaminocarbonyl-5-isoxazolyl)methyl]-4-methoxybenzamide] | 5 (0) | 5 (0)
COc1ccc(C(=O)NCc2cc(COc3c(F)cccc3F)no2)cc1 [IV-86, N-{[3-(2,6-difluorophenyl)oxymethyl-5-isoxazolyl]methyl}-4-methoxybenzamide] | 5 (0) | 5 (0)
COc1ccc(C(=O)NCc2cc(COc3ccc(C(C)=O)cc3)no2)cc1 [IV-87, N-{[3-(4-acetylphenyl)oxymethyl-5-isoxazolyl]methyl}-4-methoxybenzamide] | 4 (1˜5) | 5 (0)
CNC(=O)c1ccc(OCc2cc(CNC(=O)c3ccc(OC)cc3)on2)cc1 [IV-88, N-{[3-(4-methylaminocarbonylphenyl)oxymethyl-5-isoxazolyl]methyl}-4-methoxybenzamide] | 3 (6˜10) | 3 (6˜10)
COc1ccc(C(=O)NCc2cc(/C=C/c3ccco3)no2)cc1 [IV-89, N-{[3-(2-(2-furyl)ethenyl)-5-isoxazolyl]methyl}-4-methoxybenzamide] | 5 (0) | 5 (0)
COc1ccc(C(=O)NCc2cc(COc3ccncc3)no2)cc1 [IV-90, N-{[3-(4-pyridyl)oxymethyl-5-isoxazolyl]methyl}-4-methoxybenzamide] | 3 (6˜10) | 3 (6˜10)
COc1ccc(C(=O)NCc2cc(COc3ccccn3)no2)cc1 [IV-92, N-{[3-(2-pyridyl)oxymethyl-5-isoxazolyl]methyl}-4-methoxybenzamide] | 3 (6˜10) | 4 (1˜5)
COc1ccc(C(=O)NCc2cc(C(=O)Nc3ccc(OC(F)F)cc3)no2)cc1 [IV-93, N-{[3-(4-difluoromethyloxyphenyl)aminocarbonyl-5-isoxazolyl]methyl}-4-methoxybenzamide] | 3 (6˜10) | 4 (1˜5)
COc1ccc(NC(=O)c2cc(CNC(=O)c3ccc(OC)cc3)on2)cc1 [IV-94, N-{[3-(4-methoxyphenyl)aminocarbonyl-5-isoxazolyl]methyl}-4-methoxybenzamide] | 3 (6˜10) | 2 (11˜20)
COc1ccc(C(=O)NCc2cc(C(=O)Nc3ccc(F)cc3)no2)cc1 [IV-95, N-{[3-(4-fluorophenyl)aminocarbonyl-5-isoxazolyl]methyl}-4-methoxybenzamide] | 4 (1˜5) | 4 (1˜5)
COc1ccc(C(=O)NCc2cc(C(=O)Nc3ccccc3Cl)no2)cc1 [IV-96, N-{[3-(2-chlorophenyl)aminocarbonyl-5-isoxazolyl]methyl}-4-methoxybenzamide] | 4 (1˜5) | 4 (1˜5)
COc1ccc(C(=O)NCc2cc(C(=O)Nc3ccc(C#N)cc3)no2)cc1 [IV-97, N-{[3-(4-cyanophenyl)aminocarbonyl-5-isoxazolyl]methyl}-4-methoxybenzamide] | 5 (0) | 5 (0)
O=C(/C=C/c1ccccc1)NCc1cc(COc2ccccc2)no1 [IV-99, N-[(3-phenoxymethyl-5-isoxazolyl)methyl]-β-phenylacrylamide] | 4 (1˜5) | 4 (1˜5)
COc1ccc(C(=O)NCc2cc(C(=O)Nc3cccc(Cl)c3)no2)cc1 [IV-105, N-{[3-(3-chlorophenyl)aminocarbonyl-5-isoxazolyl]methyl}-4-methoxybenzamide] | 3 (6˜10) | 3 (6˜10)
COc1ccc(C(=O)NCc2cc(C(=O)Nc3ccc(F)cc3F)no2)cc1 [IV-107, N-{[3-(2,4-difluorophenyl)aminocarbonyl-5-isoxazolyl]methyl}-4-methoxybenzamide] | 5 (0) | 5 (0)
COc1ccc(C(=O)NCc2cc(C(=O)Nc3ccc(C)cc3)no2)cc1 [IV-108, N-{[3-(4-tolyl)aminocarbonyl-5-isoxazolyl]methyl}-4-methoxybenzamide] | 2 (11˜20) | 2 (11˜20)
COc1ccc(C(=O)NCc2cc(C#Cc3ccccc3)no2)cc1 [IV-110, N-[(3-phenylethynyl-5-isoxazolyl)methyl]-4-methoxybenzamide] | 5 (0) | 5 (0)
COCc1cc(CNC(=O)c2ccc(OC)cc2)on1 [IV-111, N-[(3-methoxymethyl-5-isoxazolyl)methyl]-4-methoxybenzamide] | 3 (6˜10) | 3 (6˜10)
